Measurements: ChEMBL document CHEMBL1138548, “Three-dimensional QSAR analyses of 1,3,4-trisubstituted pyrrolidine-based CCR5 receptor inhibitors” (Eur J Med Chem, 2008)

What follows are compounds tested against C-C chemokine receptor type 5 (Homo sapiens, UniProt P51681) (assay: biochemical).
Format: cell-based, CHO
Description: Displacement of [125I]MIP1alpha from human CCR5 expressed in CHO cells

Chain of C-C chemokine receptor type 5 (P51681 whole entry): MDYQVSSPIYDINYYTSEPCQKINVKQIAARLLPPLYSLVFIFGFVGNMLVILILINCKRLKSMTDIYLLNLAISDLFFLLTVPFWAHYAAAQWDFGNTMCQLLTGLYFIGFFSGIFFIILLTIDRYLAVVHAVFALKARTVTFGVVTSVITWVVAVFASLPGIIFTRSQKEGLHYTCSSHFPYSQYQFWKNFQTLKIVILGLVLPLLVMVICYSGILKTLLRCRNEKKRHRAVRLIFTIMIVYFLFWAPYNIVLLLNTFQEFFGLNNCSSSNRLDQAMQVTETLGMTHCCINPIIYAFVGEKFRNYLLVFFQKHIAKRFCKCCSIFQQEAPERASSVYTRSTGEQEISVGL

Compound | IC50 [nM]
O=C(O)[C@@H](CC1CCCCC1)N1C[C@H](CN2CCC(CCC(F)(F)c3ccc(F)cc3)CC2)[C@@H](c2ccccc2)C1 | 0.3
Cn1nnc(-c2ccc(CCCC3(O)CCN(C[C@H]4CN(CC5CCCCC5)C[C@@H]4c4ccccc4)CC3)cc2)n1 | 0.4
C=C(Cc1ccccc1)[C@@H](C1CCCCC1)N1C[C@H](CN2CCC(O)(CCCc3ccccc3)CC2)[C@@H](c2ccccc2)C1 | 3.6
CC(C)C[C@H](C(=O)O)N1C[C@H](CN2CCC(CCS(=O)(=O)c3ccc(F)cc3)CC2)[C@@H](c2cccc(F)c2)C1 | 0.9
CC(C)C[C@H](C(=O)O)N1C[C@H](CN2CCC(CCSc3ccc(F)cc3)CC2)[C@@H](c2cccc(F)c2)C1 | 0.8
CC(C)C[C@H](C(=O)O)N1C[C@H](CN2CCC(CCC(F)(F)c3ccc(F)cc3)CC2)[C@@H](c2cccc(F)c2)C1 | 0.5
O=C(O)[C@@H](CC1CCC1)N1C[C@H](CN2CCC(c3[nH]c(Cc4ccccc4)nc3Cl)CC2)[C@@H](c2ccccc2)C1 | 0.6
O=C(O)[C@@H](CC1CCC1)N1C[C@H](CN2CCC(c3nnc4ccccn34)CC2)[C@@H](c2cccc(F)c2)C1 | 12
CCc1nc(Cc2ccccc2)sc1C1CCN(C[C@H]2CN([C@H](CC(C)C)C(=O)O)C[C@@H]2c2ccccc2)CC1 | 1
O=C(O)[C@@H](CC1CC1)N1C[C@H](CN2CCC(CCC(OCCO)c3ccc(F)cc3)CC2)[C@@H](c2cccc(F)c2)C1 (some centres not stated) | 3.7
O=C(O)[C@@H](CC1CCC1)N1C[C@H](CN2CCC(c3cn4cccnc4n3)CC2)[C@@H](c2cccc(F)c2)C1 | 200

The next lines start with the values.

IC50 [nM] | Compound
122 | CCn1nc(-c2ccc(CN)cc2)cc1C1CCN(C[C@H]2CN([C@@H](C(=O)O)C3CCCCC3)C[C@@H]2c2ccccc2)CC1
0.89 | CCc1nc(Cc2ccccc2)oc1C1CCN(C[C@H]2CN([C@H](CC3CCC3)C(=O)O)C[C@@H]2c2ccccc2)CC1
6.9 | CCn1nc(C(C)(C)c2ccccc2)cc1C1CCN(C[C@H]2CN([C@@H](C(=O)O)C3CCCCC3)C[C@@H]2c2ccccc2)CC1
0.76 | CCc1nc(Cc2ccccc2)sc1C1CCN(C[C@H]2CN([C@H](CC3CCC3)C(=O)O)C[C@@H]2c2ccccc2)CC1
1.2 | O=C(O)[C@@H](C1CCCCC1)N1C[C@H](CN2CCC(c3cc(Cc4ccccc4)on3)CC2)[C@@H](c2ccccc2)C1
2.1 | O=C(O)[C@@H](C1CCCCC1)N1C[C@H](CN2CCC(c3cc(C(F)(F)c4ccccc4)n[nH]3)CC2)[C@@H](c2ccccc2)C1
11.5 | CC(C)(c1ccccc1)c1cc(C2CCN(C[C@H]3CN([C@@H](C(=O)O)C4CCCCC4)C[C@@H]3c3ccccc3)CC2)[nH]n1
0.57 | CCc1nc(Cc2ccccc2)[nH]c1C1CCN(C[C@H]2CN([C@H](CC3CCC3)C(=O)O)C[C@@H]2c2ccccc2)CC1
0.23 | O=C(O)[C@@H](CC1CCC1)N1C[C@H](CN2CCC(c3cnc(Cc4ccccc4)s3)CC2)[C@@H](c2ccccc2)C1
0.8 | O=C(O)[C@@H](C1CCCCC1)N1C[C@H](CN2CCC(c3cc(Cc4ccccc4)no3)CC2)[C@@H](c2ccccc2)C1
0.23 | O=C(O)[C@@H](CC1CC1)N1C[C@H](CN2CCC(c3cnc(Cc4ccccc4)s3)CC2)[C@@H](c2ccccc2)C1
